According to US20240382471A1, “GLUCAGON-LIKE PEPTIDE-1 RECEPTOR MODULATORS AND USES THEREOF” (HEPAGENE THERAPEUTICS (HK) LIMITED, priority 2021, published 2024):

What follows are compounds tested against GLP1R (Homo sapiens, UniProt P43220) (assay: GLP1R cAMP assay (HTRF cAMP detection, agonist activity)). Details: Flp-In-293-GLP1R cells, 30 min at 37° C., read-out: EC50 (nM) Assay 1.
Format: cell-based
Set-up: host or cells: Flp-In-293
Experimental: GLP1R-mediated agonist activity was determined with a cell-based functional assay utilizing an HTRF (Homogeneous Time-Resolved Fluorescene) cAMP detection kit that measures CAMP levels in the cell. Reagents and equipment used in the assay are listed below, followed by the protocol.
• 1) Cell Line: Flp-In-293-GLP1R (constructed by Pharmaron Beijing Co., Ltd) • 2) Complete Medium: DMEM+10% FBS+1×Penicillin-Streptomycin+200 μg/mL HB • 3) Assay Buffer: 1×HBSS+20 mM HEPES+0.1% BSA+500 μM IBMX
• a) Seed Flpin-293-GLP1R cells at 20,000 cells/well into 384 well assay plate (6007680-50, PE) using complete medium. • b) Prepare 4×compound working solution with assay buffer. • c) Add 5 μL 4×compound working solution into cell plate, incubate 30 min at 37° C. • d) Dilute Eu-cAMP tracer (1/50) with lysis buffer and add 10 μl/well to assay plate. • e) Dilute Ulight-anti-cAMP (1/150) with lysis buffer and add 10 μl/well to assay plate. • f) Incubate 1 h at RT. • g) Read the plate at wavelengths of 665 nm and 615 nm on Envision 2105 plate reader.
• 3.1% Activity is calculated as follow:
% Activity=100−(Signalcmpd−SignalAve_PC)/(SignalAve_VC−SignalAve_PC)×100. • 3.2 Calculate EC50 and Plot effect-dose curve of cmpds:
Y=Bottom+(Top−Bottom)/(1+10^((Log EC50−X)*Hill Slope)) • X: log of agonist concentration; Y: % Activity.

GLP1R, sequence (P43220 24-463, species assumed): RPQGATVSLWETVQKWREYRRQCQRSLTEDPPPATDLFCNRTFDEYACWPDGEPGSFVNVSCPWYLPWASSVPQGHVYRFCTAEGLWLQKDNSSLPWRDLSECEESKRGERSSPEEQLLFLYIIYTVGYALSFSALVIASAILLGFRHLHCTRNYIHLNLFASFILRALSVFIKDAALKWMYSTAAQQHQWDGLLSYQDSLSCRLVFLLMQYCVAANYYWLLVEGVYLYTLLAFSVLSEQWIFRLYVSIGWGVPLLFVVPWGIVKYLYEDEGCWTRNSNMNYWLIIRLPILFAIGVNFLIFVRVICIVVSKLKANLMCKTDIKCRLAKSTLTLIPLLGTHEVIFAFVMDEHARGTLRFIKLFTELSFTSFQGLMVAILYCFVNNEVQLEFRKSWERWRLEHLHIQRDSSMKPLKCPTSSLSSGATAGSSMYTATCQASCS

Row | EC50 | SMILES
1 | > 4 nM | N#Cc1ccc(COc2ncccc2N2CC3CCC(C2)N3Cc2nc3ccc(C(=O)O)cc3n2C[C@@H]2CCO2)c(F)c1 [Compound 2-16, 2-[(3-{2-[(4-cyano-2-fluorophenyl)methoxy]pyridin-3-yl}-3,8-diazabicyclo[3.2.1]octan-8-yl)methyl]-3-[(2S)-oxetan-2-ylmethyl]-1,3-benzodiazole-5-carboxylic acid]
2 | > 4 nM | O=C(O)c1ccc2nc(CN3C4CCC3CN(c3cccnc3OCc3ccc(Cl)cc3F)C4)n(C[C@@H]3CCO3)c2c1 [Compound 2-17, 2-[(3-{2-[(4-chloro-2-fluorophenyl)methoxy]pyridin-3-yl}-3,8-diazabicyclo[3.2.1]octan-8-yl)methyl]-3-[(2S)-oxetan-2-ylmethyl]-1,3-benzodiazole-5-carboxylic acid]
3 | 1.17 nM | N#Cc1ccc(COc2cccc(N3CC4CCC(C3)N4Cc3nc4ccc(C(=O)O)cc4n3C[C@@H]3CCO3)c2)c(F)c1 [Compound 2-18, 2-((−3-(3-((4-cyano-2-fluorobenzyl)oxy)phenyl)-3,8-diazabicyclo[3.2.1]octan-8-yl)methyl)-1-(((S)-oxetan-2-yl)methyl)-1H-benzo[d]imidazole-6-carboxylic acid]
4 | 1.84 nM | N#Cc1ccc(COc2cccc(N3CC4CN(Cc5nc6ccc(C(=O)O)cc6n5C[C@@H]5CCO5)CC4C3)n2)c(F)c1 (stereo partly drawn) [Compound 2-20, 2-[(5-{6-[(4-cyano-2-fluorophenyl)methoxy]pyridin-2-yl}-hexahydropyrrolo[3,4-c]pyrrol-2-yl)methyl]-3-[(2S)-oxetan-2-ylmethyl]-1,3-benzodiazole-5-carboxylic acid]
5 | > 4 nM | N#Cc1ccc(COc2cccc(N3CC4CN(Cc5nc6ccc(C(=O)O)cc6n5CC5CCO5)CC4C3)n2)c(F)c1 (stereo not shown) [Compound 2-21, 2-[(5-{6-[(4-cyano-2-fluorophenyl)methoxy]pyridin-2-yl}-hexahydropyrrolo[3,4-c]pyrrol-2-yl)methyl]-3-(oxetan-2-ylmethyl)-1,3-benzodiazole-5-carboxylic acid]
6 | 2 nM | N#Cc1ccc(COc2cccc(N3CC4CN(Cc5nc6ccc(C(=O)O)cc6n5C[C@@H]5CCO5)CC4C3)n2)cc1 (stereo partly drawn) [Compound 2-22, 2-((5-(6-((4-cyanobenzyl)oxy)pyridin-2-yl)hexahydropyrrolo[3,4-c]pyrrol-2 (1H)-yl)methyl)-1-(((S)-oxetan-2-yl)methyl)-1H-benzo[d]imidazole-6-carboxylic acid]
7 | > 4 nM | N#Cc1ccc(COc2cccc(N3CC4CN(Cc5nc6ccc(C(=O)O)cc6n5C[C@@H]5CCCO5)CC4C3)n2)c(F)c1 (stereo partly drawn) [Compound 2-23, 2-[(5-{6-[(4-cyano-2-fluorophenyl)methoxy]pyridin-2-yl}-hexahydropyrrolo[3,4-c]pyrrol-2-yl)methyl]-3-[(2S)-oxolan-2-ylmethyl]-1,3-benzodiazole-5-carboxylic acid]
8 | 3.05 nM | N#Cc1ccc(COc2cccc(N3CC4CN(Cc5nc6ccc(C(=O)O)cc6n5CC5CCOC5)CC4C3)n2)c(F)c1 (stereo not shown) [Compound 2-24, 2-[(5-{6-[(4-cyano-2-fluorophenyl)methoxy]pyridin-2-yl}-hexahydropyrrolo[3,4-c]pyrrol-2-yl)methyl]-3-(oxolan-3-ylmethyl)-1,3-benzodiazole-5-carboxylic acid]
9 | 1.7 nM | N#Cc1ccc(COc2cccc(N3CC4CN(Cc5nc6ccc(C(=O)O)cc6n5Cc5cocn5)CC4C3)n2)c(F)c1 (stereo not shown) [Compound 2-25, 2-[(5-{6-[(4-cyano-2-fluorophenyl)methoxy]pyridin-2-yl}-hexahydropyrrolo[3,4-c]pyrrol-2-yl)methyl]-3-(1,3-oxazol-4-ylmethyl)-1,3-benzodiazole-5-carboxylic acid]
10 | > 4 nM | N#Cc1ccc(COc2cccc(N3CC4CN(Cc5nc6ccc(C(=O)O)cc6n5Cc5ncco5)CC4C3)n2)c(F)c1 (stereo not shown) [Compound 2-26, 2-[(5-{6-[(4-cyano-2-fluorophenyl)methoxy]pyridin-2-yl}-hexahydropyrrolo[3,4-c]pyrrol-2-yl)methyl]-3-(1,3-oxazol-2-ylmethyl)-1,3-benzodiazole-5-carboxylic acid]
11 | > 4 nM | O=C(O)c1ccc2nc(CN3CC4CN(c5cccc(OCc6ccc(Cl)cc6F)n5)CC4C3)n(C[C@@H]3CCO3)c2c1 (stereo partly drawn) [Compound 2-27, 2-((5-(6-((4-chloro-2-fluorobenzyl)oxy)pyridin-2-yl)hexahydropyrrolo[3,4-c]pyrrol-2 (1H)-yl)methyl)-1-(((S)-oxetan-2-yl)methyl)-1H-benzo[d]imidazole-6-carboxylic acid]
12 | > 4 nM | O=C(O)c1ccc2nc(CN3CC4CN(c5cccc(OCc6ccc(F)cc6F)n5)CC4C3)n(C[C@@H]3CCO3)c2c1 (stereo partly drawn) [Compound 2-28, 2-[(5-{6-[(2,4-difluorophenyl)methoxy]pyridin-2-yl}-hexahydropyrrolo[3,4-c]pyrrol-2-yl)methyl]-3-[(2S)-oxetan-2-ylmethyl]-1,3-benzodiazole-5-carboxylic acid]
13 | 1.5 nM | N#Cc1ccc(COc2cccc(N3C4CCC3CN(Cc3nc5ccc(C(=O)O)cc5n3Cc3ncco3)C4)n2)c(F)c1 [Compound 2-31, 2-[(8-{6-[(4-cyano-2-fluorophenyl)methoxy]pyridin-2-yl}-3,8-diazabicyclo[3.2.1]octan-3-yl)methyl]-3-(1,3-oxazol-2-ylmethyl)-1,3-benzodiazole-5-carboxylic acid]
14 | 3.25 nM | N#Cc1ccc(COc2cccc(N3C4CCC3CN(Cc3nc5ccc(C(=O)O)cc5n3C[C@@H]3CCCO3)C4)n2)c(F)c1 [Compound 2-32, 2-((−8-(6-((4-cyano-2-fluorobenzyl)oxy)pyridin-2-yl)-3,8-diazabicyclo[3.2.1]octan-3-yl)methyl)-1-(((S)-tetrahydrofuran-2-yl)methyl)-1H-benzo[d]imidazole-6-carboxylic acid]
15 | > 4 nM | N#Cc1ccc(COc2cccc(N3C4CCC3CN(Cc3nc5ccc(C(=O)O)cc5n3CC3CCOC3)C4)n2)c(F)c1 (stereo not shown) [Compound 2-33, 2-[(8-{6-[(4-cyano-2-fluorophenyl)methoxy]pyridin-2-yl}-3,8-diazabicyclo[3.2.1]octan-3-yl)methyl]-3-(oxolan-3-ylmethyl)-1,3-benzodiazole-5-carboxylic acid]
16 | > 4 nM | O=C(O)c1ccc2nc(CN3CC4CCC(C3)N4c3cccc(OCc4ccccc4F)n3)n(C[C@@H]3CCO3)c2c1 [Compound 2-36, 2-((−8-(6-((2-fluorobenzyl)oxy)pyridin-2-yl)-3,8-diazabicyclo[3.2.1]octan-3-yl)methyl)-1-(((S)-oxetan-2-yl)methyl)-1H-benzo[d]imidazole-6-carboxylic acid]
17 | 0.929 nM | Cc1ccc(COc2cccc(N3C4CCC3CN(Cc3nc5ccc(C(=O)O)cc5n3C[C@@H]3CCO3)C4)n2)c(F)c1 [Compound 2-37, 2-((−8-(6-((2-fluoro-4-methylbenzyl)oxy)pyridin-2-yl)-3,8-diazabicyclo[3.2.1]octan-3-yl)methyl)-1-(((S)-oxetan-2-yl)methyl)-1H-benzo[d]imidazole-6-carboxylic acid]
18 | 0.458 nM | N#Cc1ccc(COc2cccc(N3C4CCC3CN(Cc3nc5ccc(C(=O)O)cc5n3C[C@@H]3CCO3)C4)n2)cc1 [Compound 2-38, 2-((8-(6-((4-cyanobenzyl)oxy)pyridin-2-yl)-3,8-diazabicyclo[3.2.1]octan-3-yl)methyl)-1-(((S)-oxetan-2-yl)methyl)-1H-benzo[d]imidazole-6-carboxylic acid]
19 | 0.346 nM | O=C(O)c1ccc2nc(CN3CC4CCC(C3)N4c3cccc(OCc4ccc(Cl)cc4F)n3)n(C[C@@H]3CCO3)c2c1 [Compound 2-39, 2-[(8-{6-[(4-chloro-2-fluorophenyl)methoxy]pyridin-2-yl}-3,8-diazabicyclo[3.2.1]octan-3-yl)methyl]-3-[(2S)-oxetan-2-ylmethyl]-1,3-benzodiazole-5-carboxylic acid]
20 | > 4 nM | O=C(O)c1ccc2nc(CN3CC4CCC(C3)N4c3cccc(OCc4ccncc4F)n3)n(C[C@@H]3CCO3)c2c1 [Compound 2-40, 2-((−8-(6-((3-fluoropyridin-4-yl)methoxy)pyridin-2-yl)-3,8-diazabicyclo[3.2.1]octan-3-yl)methyl)-1-(((S)-oxetan-2-yl)methyl)-1H-benzo[d]imidazole-6-carboxylic acid]
21 | > 4 nM | O=C(O)c1ccc2nc(CN3CC4CCC(C3)N4c3cccc(OCc4ccncc4)n3)n(C[C@@H]3CCO3)c2c1 [Compound 2-41, 3-[(2S)-oxetan-2-ylmethyl]-2-({8-[6-(pyridin-4-ylmethoxy)pyridin-2-yl]-3,8-diazabicyclo[3.2.1]octan-3-yl}methyl)-1,3-benzodiazole-5-carboxylic acid]
22 | > 4 nM | CS(=O)(=O)NC(=O)c1ccc2nc(CN3CC4CCC(C3)N4c3cccc(OCc4ccc(C#N)cc4F)n3)n(C[C@@H]3CCO3)c2c1 [Compound 2-42, 2-((−8-(6-((4-cyano-2-fluorobenzyl)oxy)pyridin-2-yl)-3,8-diazabicyclo[3.2.1]octan-3-yl)methyl)-N-(methylsulfonyl)-1-(((S)-oxetan-2-yl)methyl)-1H-benzo[d]imidazole-6-carboxamide]
